# Laboratory results as given in patent US20140128402A1, “PHARMACEUTICAL COMBINATION” (IPCA Laboratories Limited, priority 2011, published 2014).
# Legend:
# Assay type in all cases: in vivo, Wistar rats
# [1] = tested on: STZ-induced diabetic rats; experiment: Study No 2: biochemical parameters in STZ-induced diabetic rats; settings: for Creatinine / HbA1c / Total Protein / Urea: after 28 days, oral
# [2] = tested on: STZ induced diabetic rats; experiment: Study No 2: blood glucose in STZ induced diabetic rats (HCQ with vildagliptin and saxagliptin); settings: for Plasma glucose concentration: oral
# Description: In this experiment 96 Wistar rats weighing 150-200 g of either sex were divided randomly into 16 groups consisting of 6 rats each. The study drugs were dissolved in water/suspended in vehicle [0.1% w/v suspension of Tween 80 and carboxymethylcellulose (CMC) in water] and administered orally for 28 days. Group 1 (normal vehicle control) consisted of normal rats that neither received Streptozotocin (STZ) nor any test drug; Group 2 served as Streptozotocin induced diabetic control [Diabetes was induced in rats by single administration of Streptozotocin (55 mg/kg/i.p.) dissolved in 0.1 M-citrate buffer, pH 4.5]. Forty-eight hours later, blood samples were collected and glucose levels were determined to confirm the development of diabetes. Only animals showing hyperglycaemia (blood glucose levels>250 mg/dl) were considered as diabetic and received vehicle orally; Group 3 was diabetic rats treated with hydroxychloroquine (HCQ) (22.5 mg/kg); Group 4 was diabetic rats treated with HCQ (45 mg/kg), Group 5 was diabetic rats treated with vildagliptin (VG) 6 mg/kg; Group 6 was diabetic rats treated with VG 12 mg/kg; Group 7 was diabetic rats treated with HCQ 22.5 mg/kg+VG 12 mg/kg and Group 8 was diabetic rats treated with combination of HCQ 45 mg/kg and VG 6 mg/kg; Group 9 was diabetic rats treated with saxagliptin (SG) 0.3 mg/kg; Group 10 was diabetic rats treated with Saxagliptin (SG) 0.6 mg/kg; Group 11 was diabetic rats treated with combination of HCQ 45 mg/kg+SG 0.3 mg/kg; Group 12 was diabetic rats treated with combination of HCQ 22.5 mg/kg+SG 0.6 mg/kg; Group 13 was diabetic rats treated with combination of HCQ 22.5 mg/kg and VG 6 mg/kg; Group 14 was diabetic rats treated with combination of HCQ 45 mg/kg and VG 12 mg/kg; Group 15 was diabetic rats treated with combination of HCQ 22.5 mg/kg+SG 0.3 mg/kg; Group 16 was diabetic rats treated with combination of HCQ 45 mg/kg+SG 0.6 mg/kg.
# Blood glucose level was measured in normal and experimental rats at 0, 7th, 14th, 21st and 28th day of administration.
# [3] = tested on: STZ-induced diabetic rats; experiment: Study No 2: body weight, water intake and food intake in STZ-induced diabetic rats; settings: for AVERAGE FOOD INTAKE / AVERAGE WATER INTAKE / Body Weight: oral
# [4] = HCQ 22.5, VG 6, SG 0.3 mg/kg alone, HCQ+VG 22.5+6, HCQ+SG 22.5+0.3 mg/kg/day
# [5] = HCQ 45, VG 12, SG 0.6 mg/kg alone, HCQ+VG 45+12, HCQ+SG 45+0.6 mg/kg/day
# [6] = monotherapies, all the tested dose levels except HCQ (22.5 mg/kg), p≦0.05
# [7] = Day 0, HCQ 22.5, VG 6, SG 0.3 mg/kg alone, HCQ+VG 22.5+6, HCQ+SG 22.5+0.3 mg/kg
# [8] = Day 0, HCQ 45, VG 12, SG 0.6 mg/kg alone, HCQ+VG 45+12, HCQ+SG 45+0.6 mg/kg
# [9] = Day 7, HCQ 22.5, VG 6, SG 0.3 mg/kg alone, HCQ+VG 22.5+6, HCQ+SG 22.5+0.3 mg/kg
# [10] = Day 7, HCQ 45, VG 12, SG 0.6 mg/kg alone, HCQ+VG 45+12, HCQ+SG 45+0.6 mg/kg
# [11] = Day 14, HCQ 22.5, VG 6, SG 0.3 mg/kg alone, HCQ+VG 22.5+6, HCQ+SG 22.5+0.3 mg/kg
# [12] = Day 14, HCQ 45, VG 12, SG 0.6 mg/kg alone, HCQ+VG 45+12, HCQ+SG 45+0.6 mg/kg
# [13] = Day 21, HCQ 22.5, VG 6, SG 0.3 mg/kg alone, HCQ+VG 22.5+6, HCQ+SG 22.5+0.3 mg/kg
# [14] = Day 21, HCQ 45, VG 12, SG 0.6 mg/kg alone, HCQ+VG 45+12, HCQ+SG 45+0.6 mg/kg
# [15] = Day 28, HCQ 22.5, VG 6, SG 0.3 mg/kg alone, HCQ+VG 22.5+6, HCQ+SG 22.5+0.3 mg/kg
# [16] = Day 28, HCQ 45, VG 12, SG 0.6 mg/kg alone, HCQ+VG 45+12, HCQ+SG 45+0.6 mg/kg
# [17] = Day 0, HCQ 22.5, VG 6, SG 0.3 mg/kg alone, HCQ+VG 22.5+6, HCQ+SG 22.5+0.3 mg/kg/day
# [18] = Day 0, HCQ 45, VG 12, SG 0.6 mg/kg alone, HCQ+VG 45+12, HCQ+SG 45+0.6 mg/kg/day
# [19] = Day 7, HCQ 22.5, VG 6, SG 0.3 mg/kg alone, HCQ+VG 22.5+6, HCQ+SG 22.5+0.3 mg/kg/day
# [20] = Day 7, HCQ 45, VG 12, SG 0.6 mg/kg alone, HCQ+VG 45+12, HCQ+SG 45+0.6 mg/kg/day
# [21] = Day 14, HCQ 22.5, VG 6, SG 0.3 mg/kg alone, HCQ+VG 22.5+6, HCQ+SG 22.5+0.3 mg/kg/day
# [22] = Day 14, HCQ 45, VG 12, SG 0.6 mg/kg alone, HCQ+VG 45+12, HCQ+SG 45+0.6 mg/kg/day
# [23] = Day 21, HCQ 22.5, VG 6, SG 0.3 mg/kg alone, HCQ+VG 22.5+6, HCQ+SG 22.5+0.3 mg/kg/day
# [24] = Day 21, HCQ 45, VG 12, SG 0.6 mg/kg alone, HCQ+VG 45+12, HCQ+SG 45+0.6 mg/kg/day
# [25] = Day 28, HCQ 22.5, VG 6, SG 0.3 mg/kg alone, HCQ+VG 22.5+6, HCQ+SG 22.5+0.3 mg/kg/day
# [26] = Day 28, HCQ 45, VG 12, SG 0.6 mg/kg alone, HCQ+VG 45+12, HCQ+SG 45+0.6 mg/kg/day
structure (smiles),measurement,setting,value
"N#C[C@@H]1CCCN1C(=O)CNC12CC3CC(CC(O)(C3)C1)C2 [VG, Vildagliptin]",Creatinine,[1]; [4],1.78 ± 0.14 mg/dL
same,HbA1c,[1]; [4],10.76 ± 0.97 %
same,Total Protein,[1]; [4],7.08 ± 0.55 gm/dl
same,Urea,[1]; [4],21.48 ± 4.35 mg/dL
same,Creatinine,[1]; [5],1.69 ± 0.21 mg/dL
same,HbA1c,[1]; [5],9.97 ± 0.95 %
same,Total Protein,[1]; [5],7.15 ± 0.19 gm/dl
same,Urea,[1]; [5],20.23 ± 1.89 mg/dL
same,HbA1c levels as compared to diabetic control,"[1]; all tested doses, 28 days, p≦0.05",significantly (p≦0.05) reduced
same,total protein level as compared to the diabetic control group,"[1]; monotherapies at all doses, 28 days, p≦0.05",significant rise
same,creatinine levels as compared to diabetic control group,[1]; [6],significant reduction
same,urea levels as compared to diabetic control group,[1]; [6],significant reduction
same,Plasma glucose concentration,[2]; [7],296 ± 21.59 mg/dL
same,Plasma glucose concentration,[2]; [8],288 ± 11.58 mg/dL
same,Plasma glucose concentration,[2]; [9],242.17 ± 40.58 mg/dL
same,Plasma glucose concentration,[2]; [10],227 ± 40.57 mg/dL
same,Plasma glucose concentration,[2]; [11],199.83 ± 35.33 mg/dL
same,Plasma glucose concentration,[2]; [12],188.83 ± 34.23 mg/dL
same,Plasma glucose concentration,[2]; [13],191.33 ± 22.46 mg/dL
same,Plasma glucose concentration,[2]; [14],173.5 ± 15.6 mg/dL
same,Plasma glucose concentration,[2]; [15],182.67 ± 33.01 mg/dL
same,Plasma glucose concentration,[2]; [16],167.5 ± 9.12 mg/dL
same,blood glucose levels as compared to diabetic control group,"[2]; alone at therapeutic equivalent doses, day 28",significant improvement
same,AVERAGE FOOD INTAKE,[3]; [17],11.40 g
same,AVERAGE WATER INTAKE,[3]; [17],25.00 mL
same,Body Weight,[3]; [17],195 ± 7.18 g
same,AVERAGE FOOD INTAKE,[3]; [18],11.90 g
same,AVERAGE WATER INTAKE,[3]; [18],24.35 mL
same,Body Weight,[3]; [18],197.5 ± 6.35 g
same,AVERAGE FOOD INTAKE,[3]; [19],13.00 g
same,AVERAGE WATER INTAKE,[3]; [19],22.12 mL
same,Body Weight,[3]; [19],179.17 ± 11.27 g
same,AVERAGE FOOD INTAKE,[3]; [20],13.50 g
same,AVERAGE WATER INTAKE,[3]; [20],22.19 mL
same,Body Weight,[3]; [20],189 ± 3.52 g
same,AVERAGE FOOD INTAKE,[3]; [21],12.10 g
same,AVERAGE WATER INTAKE,[3]; [21],21.32 mL
same,Body Weight,[3]; [21],182.83 ± 12.66 g
same,AVERAGE FOOD INTAKE,[3]; [22],12.00 g
same,AVERAGE WATER INTAKE,[3]; [22],22.11 mL
same,Body Weight,[3]; [22],187.67 ± 6.38 g
same,AVERAGE FOOD INTAKE,[3]; [23],12.90 g
same,AVERAGE WATER INTAKE,[3]; [23],25.12 mL
same,Body Weight,[3]; [23],185.67 ± 11.86 g
same,AVERAGE FOOD INTAKE,[3]; [24],13.05 g
same,AVERAGE WATER INTAKE,[3]; [24],26.13 mL
same,Body Weight,[3]; [24],186.5 ± 8.83 g
same,AVERAGE FOOD INTAKE,[3]; [25],14.33 g
same,AVERAGE WATER INTAKE,[3]; [25],26.31 mL
same,Body Weight,[3]; [25],189.5 ± 11.81 g
same,AVERAGE FOOD INTAKE,[3]; [26],14.30 g
same,AVERAGE WATER INTAKE,[3]; [26],25.71 mL
same,Body Weight,[3]; [26],185.67 ± 11.69 g
same,body weight as compared to diabetic control group,"[3]; monotherapies, p≦0.05",reduction was significantly less
"N#C[C@@H]1C[C@@H]2C[C@@H]2N1C(=O)[C@@H](N)C12CC3CC(CC(O)(C3)C1)C2 [SG, Saxagliptin]",Creatinine,[1]; [4],1.89 ± 0.23 mg/dL
same,HbA1c,[1]; [4],10.79 ± 1.05 %
same,Total Protein,[1]; [4],6.55 ± 0.37 gm/dl
same,Urea,[1]; [4],22.74 ± 2.71 mg/dL
same,Creatinine,[1]; [5],1.81 ± 0.27 mg/dL
same,HbA1c,[1]; [5],9.65 ± 1.51 %
same,Total Protein,[1]; [5],6.62 ± 0.49 gm/dl
same,Urea,[1]; [5],21.26 ± 2.41 mg/dL
same,Plasma glucose concentration,[2]; [7],288.83 ± 26.19 mg/dL
same,Plasma glucose concentration,[2]; [8],285.5 ± 33.58 mg/dL
same,Plasma glucose concentration,[2]; [9],246.5 ± 4.89 mg/dL
same,Plasma glucose concentration,[2]; [10],146.5 ± 4.89 mg/dL
same,Plasma glucose concentration,[2]; [11],226.33 ± 12.36 mg/dL
same,Plasma glucose concentration,[2]; [12],138.5 ± 7.23 mg/dL
same,Plasma glucose concentration,[2]; [13],194 ± 38.79 mg/dL
same,Plasma glucose concentration,[2]; [14],137.5 ± 9.44 mg/dL
same,Plasma glucose concentration,[2]; [15],194.17 ± 17.17 mg/dL
same,Plasma glucose concentration,[2]; [16],161 ± 9.67 mg/dL
same,AVERAGE FOOD INTAKE,[3]; [17],12.13 g
same,AVERAGE WATER INTAKE,[3]; [17],23.71 mL
same,Body Weight,[3]; [17],208.33 ± 6.15 g
same,AVERAGE FOOD INTAKE,[3]; [18],12.45 g
same,AVERAGE WATER INTAKE,[3]; [18],24.86 mL
same,Body Weight,[3]; [18],211 ± 7.38 g
same,AVERAGE FOOD INTAKE,[3]; [19],14.00 g
same,AVERAGE WATER INTAKE,[3]; [19],21.12 mL
same,Body Weight,[3]; [19],199.5 ± 7.69 g
same,AVERAGE FOOD INTAKE,[3]; [20],14.45 g
same,AVERAGE WATER INTAKE,[3]; [20],21.11 mL
same,Body Weight,[3]; [20],203.17 ± 7.47 g
same,AVERAGE FOOD INTAKE,[3]; [21],12.54 g
same,AVERAGE WATER INTAKE,[3]; [21],21.67 mL
same,Body Weight,[3]; [21],197.83 ± 8.06 g
same,AVERAGE FOOD INTAKE,[3]; [22],12.00 g
same,AVERAGE WATER INTAKE,[3]; [22],21.89 mL
same,Body Weight,[3]; [22],201.17 ± 8.52 g
same,AVERAGE FOOD INTAKE,[3]; [23],13.05 g
same,AVERAGE WATER INTAKE,[3]; [23],25.17 mL
same,Body Weight,[3]; [23],196.33 ± 8.36 g
same,AVERAGE FOOD INTAKE,[3]; [24],13.26 g
same,AVERAGE WATER INTAKE,[3]; [24],26.00 mL
same,Body Weight,[3]; [24],199.83 ± 8.35 g
same,AVERAGE FOOD INTAKE,[3]; [25],14.25 g
same,AVERAGE WATER INTAKE,[3]; [25],25.19 mL
same,Body Weight,[3]; [25],193.83 ± 8.13 g
same,AVERAGE FOOD INTAKE,[3]; [26],14.00 g
same,AVERAGE WATER INTAKE,[3]; [26],25.12 mL
same,Body Weight,[3]; [26],198 ± 8.74 g
